Structures can show the parent of a compound that is named as a salt. Where two headings read alike, the source gives them in different places.

These results are taken from patent US9480655B2, “Solid pharmaceutical dosage form of dolutegravir” (ratiopharm GmbH, priority 2013, dated 2016).

The nature of this data set: Solubility of dolutegravir and its salts in aqueous media. It is filed as physicochemical. The procedure:
At an increasing pH, for example to pH 6.8 in 50 mM KH2PO4 the solubility of the sodium salt of dolutegravir slightly increases but the salt still remains very slightly soluble (1-0.1 mg/ml), only. Due to this very low solubility of the active ingredient the tablets known from WO2006/116764 are of little practical use because the active ingredient will hardly dissolve in the intestine resulting in a low bioavailability.
Dolutegravir may be present in the solid pharmaceutical dosage form in its non-salt form or any pharmaceutically acceptable salt or solvate thereof. Suitable pharmaceutically acceptable salts are known to the skilled person. For example, dolutegravir may be present as alkali metal salt, such as dolutegravir sodium or dolutegravir potassium. The potassium salt being preferred.

What is called solubility is the concentration that dissolves in the medium under given conditions. Take `C[C@@H]1CCO[C@H]2Cn3cc(C(=O)NCc4ccc(F)cc4F)c(=O)c(O)c3C(=O)N12` [Dolutegravir, (4R,12aS)-N-(2,4-difluorobenzyl)-7-hydroxy-4-methyl-6,8-dioxo-3,4,6,8,12,12a-hexahydro-2H-pyrido[1′,2′:4,5]pyrazino[2,1-b][1,3]oxazine-9-carboxamide]: under “medium not stated”, the solubility result is “practically insoluble”.

As for `C[C@@H]1CCO[C@H]2Cn3cc(C(=O)NCc4ccc(F)cc4F)c(=O)c(O)c3C(=O)N12` [potassium salt], the “solubility relative to the sodium salt” value is reported as “more soluble than the sodium salt”.

On to `C[C@@H]1CCO[C@H]2Cn3cc(C(=O)NCc4ccc(F)cc4F)c(=O)c(O)c3C(=O)N12` [sodium salt of dolutegravir], for which the solubility is 100 to 1000 µg/mL (aqueous buffer, pH 6.8 in 50 mM KH2PO4, read-out: solubility) and less than 100 µg/mL (simulated gastric fluid, 0.1 N HCl (pH 1.2), read-out: solubility).
